Results: US11746116B2, “Antibiotic resistance breakers” (KING'S COLLEGE LONDON, priority 2017, dated 2023)
≈ marks a conversion by molar mass, not a printed value. Structures can show the parent of a compound that is named as a salt. Where two headings read alike, the source gives them in different places.

Assays:
Test in all cases: MIC, microdilution broth method
VRE12204 = type: cell-based, Enterococcus faecium; settings: in µg/mL; for MIC: VRE12204; for MIC, VRE12204: ESKAPE panel, Gram-positive
EMRSA16 = type: cell-based, Staphylococcus aureus; settings: for MIC, EMRSA16: ESKAPE panel, Gram-positive
EMRSA15 = type: cell-based, Staphylococcus aureus; settings: for MIC, EMRSA15: ESKAPE panel, Gram-positive
MSSA9144 = type: cell-based, Staphylococcus aureus; settings: for MIC, MSSA9144: ESKAPE panel, Gram-positive
M6 = type: cell-based; settings: for MIC, M6: ESKAPE panel, Gram-negative
VRE12201 = type: cell-based, Enterococcus faecalis; settings: for MIC, VRE12201: ESKAPE panel, Gram-positive
KP13368 = type: cell-based; settings: for MIC, KP13368: ESKAPE panel, Gram-negative
PA01 = type: cell-based, Pseudomonas aeruginosa; settings: for MIC, PA01: ESKAPE panel, Gram-negative
AYE = type: cell-based, Acinetobacter baumannii; settings: AYE; Normal (no PMBN); in µg/mL
EC12923 = type: cell-based; settings: for MIC, EC12923: ESKAPE panel, Gram-negative
Ab17978 = type: cell-based; settings: for MIC, Ab17978: ESKAPE panel, Gram-negative
VSE775 = type: cell-based, Enterococcus faecalis; set-up: MIC, VSE775: unit not given beside the values; settings: for MIC, VSE775: ESKAPE panel, Gram-positive
[1] = KP13368, Normal (no PMBN), in µg/mL
[2] = PA01, Normal (no PMBN), in µg/mL
[3] = Ab17978, Normal (no PMBN), in µg/mL

Row | Compound | MIC (VRE12204) | MIC (EMRSA16; EMRSA16, in µg/mL) | MIC (EMRSA15; EMRSA15, in µg/mL) | MIC (MSSA9144; MSSA9144, in µg/mL) | MIC (M6; M6, Normal (no PMBN), in µg/mL) | MIC (VRE12201; VRE12201, in µg/mL) | MIC (KP13368; [1]) | MIC (PA01; [2]) | MIC (AYE) | MIC (EC12923; EC12923, in µg/mL) | MIC (Ab17978; [3]) | MIC (VSE775; VSE775, in µg/mL) | also measured
1 | C[C@H]1COc2c(N3CCC(Nc4ncccn4)C3)c(F)cc3c(=O)c(C(=O)O)cn1c23 (stereo partly drawn) [Compound 82-KSN-L7, (3S)-9-fluoro-3-methyl-7-oxo-10-(3-(pyrimidin-2-ylamino)-pyrrolidin-1-yl)-2,3-dihydro-7H-[1,4]oxazino[2,3,4-ij]quinoline-6-carboxylic acid] | 4 | 4 | 4 | ≤0.125-4 | 2-4 | 0.5 | 16 | 16 | 64 | 1 | 1 | 1-2 | –
2 | COC(=O)c1cnc(N2CCN(c3c(F)cc4c(=O)c(C(=O)O)cn5c4c3OC[C@@H]5C)CC2)nc1 [Compound 82-KSN-L8] | 4 | 16 | 8 | ≤0.12 | 4 | 2 | 32 | 32 | – | 4 | 2 | 4 | –
3 | C[C@H]1COc2c(N3CCC(N4CCN(C)CC4)C3)c(F)cc3c(=O)c(C(=O)O)cn1c23 (stereo partly drawn) [KSN-L31, (3S)-9-fluoro-3-methyl-10-(3-(4-methylpiperazin-1-yl)pyrrolidin-1-yl)-7-oxo-2,3-dihydro-7H-[1,4]oxazino[2,3,4-ij]quinoline-6-carboxylic acid] | – | – | – | – | – | – | – | – | – | – | – | – | MIC, VRE12204 (VRE12204): 8; MIC, EMRSA16 (EMRSA16; in µg/mL): 64; MIC, EMRSA15 (EMRSA15; in µg/mL): 64; MIC, MSSA9144 (MSSA9144; in µg/mL): 0.5-1; MIC, M6 (M6; in µg/mL): 4; MIC, VRE12201 (VRE12201; in µg/mL): 2; MIC, KP13368 (KP13368): 64 mg/L (≈ 149 µM); MIC, PA01 (PA01; in µg/mL): 64; MIC, EC12923 (EC12923; in µg/mL): 2; MIC, Ab17978 (Ab17978; in µg/mL): 4; MIC, VSE775 (VSE775): 4
4 | C[C@H]1COc2c(N3CCC(N4CCOCC4)C3)c(F)cc3c(=O)c(C(=O)O)cn1c23 (stereo partly drawn) [KSN-L33, (3S)-9-fluoro-3-methyl-10-(3-morpholinopyrrolidin-1-yl)-7-oxo-2,3-dihydro-7H-[1,4]oxazino[2,3,4-ij]quinoline-6-carboxylic acid] | – | – | – | – | – | – | – | – | – | – | – | – | MIC, VRE12204 (VRE12204): 4; MIC, EMRSA16 (EMRSA16; in µg/mL): 16-32; MIC, EMRSA15 (EMRSA15; in µg/mL): 16; MIC, MSSA9144 (MSSA9144; in µg/mL): 0.25; MIC, M6 (M6; in µg/mL): 8; MIC, VRE12201 (VRE12201; in µg/mL): 2; MIC, KP13368 (KP13368): 32 mg/L (≈ 76.7 µM); MIC, PA01 (PA01; in µg/mL): 32-64; MIC, EC12923 (EC12923; in µg/mL): 2; MIC, Ab17978 (Ab17978; in µg/mL): 2; MIC, VSE775 (VSE775): 4
5 | O=C(O)c1cn(C2CC2)c2cc(N3CCN(Cc4cccc5c4OCO5)CC3)c(F)cc2c1=O [ML-77-032] | – | 64 | – | 0.25-1 | 2 | 1 | – | 16 | 64 | – | 0.25 | 2 | –
6 | O=C(O)c1cn(C2CC2)c2cc(N3CCN(Cc4ccccc4)CC3)c(F)cc2c1=O [ML-77-046] | 4-8 | 32 | – | 0.12-0.25 | 2 | 1-2 | – | – | 64-128 | – | 0.25 | 2-4 | –
7 | O=C(O)c1cn(C2CC2)c2cc(N3CCN(Cc4ccc(CO)cc4)CC3)c(F)cc2c1=O [ML-77-147] | – | 8 | 8 | <0.12 | 0.5-1 | 0.5 | – | – | 16-32 | – | 0.25-0.5 | 1 | –
8 | C[C@H]1COc2c(N3CCN(c4ncc(F)cn4)CC3)c(F)cc3c(=O)c(C(=O)O)cn1c23 [ML-83-010] | – | – | – | – | – | – | – | – | – | – | – | – | MIC, VRE12204 (VRE12204): 1-4; MIC, EMRSA16 (EMRSA16; in µg/mL): 2; MIC (EMRSA16; Staphylococcus aureus (EMRSA16), Gram-Positive (Table 14), read-out: MIC): 2 mg/L (≈ 4.51 µM); MIC, EMRSA15 (EMRSA15; in µg/mL): 2; MIC (EMRSA15; Staphylococcus aureus, Staphylococcus aureus (EMRSA15), Gram-Positive (Table 14), read-out: MIC): 2 mg/L (≈ 4.51 µM); MIC (MSSA9144; Staphylococcus aureus (MSSA9144), Gram-Positive, read-out: MIC): ≤ 0.125 mg/L; MIC, M6 (M6; in µg/mL): 4; MIC (M6; Klebsiella pneumoniae (M6), Gram-Negative, read-out: MIC): 4 mg/L (≈ 9.02 µM); MIC (VRE12201; Enterococcus faecalis, Enterococcus (VRE12201), Gram-Positive, read-out: MIC): ≤ 0.125 mg/L; MIC, KP13368 (KP13368): 32 mg/L (≈ 72.2 µM); MIC (KP13368; Klebsiella pneumoniae (KP13368), Gram-Negative, read-out: MIC): 32 mg/L (≈ 72.2 µM); MIC, PA01 (PA01; in µg/mL): 64; MIC (PA01; Pseudomonas aeruginosa (PA01), Gram-Negative, read-out: MIC): 64 mg/L (≈ 144 µM); MIC, EC12923 (EC12923; in µg/mL): 2; MIC (EC12923; Escherichia coli (EC12923), Gram-Negative, read-out: MIC): 2 mg/L (≈ 4.51 µM); MIC (Ab17978; Acinetobacter baumannii (AB17978), Gram-Negative, read-out: MIC): 2 mg/L (≈ 4.51 µM); MIC, Ab17978 (Ab17978; in µg/mL): 2; MIC, VSE775 (VSE775): < 0.125 - 0.5; MIC (VSE775; Enterococcus faecalis, Enterococcus (VRE775), Gram-Positive, read-out: MIC): 0.5 mg/L (≈ 1.13 µM)
9 | Cc1cc(N2CCN(c3c(F)cc4c(=O)c(C(=O)O)cn5c4c3OC[C@@H]5C)CC2)nc(C(C)C)n1 [ML-83-012, hydrochloride] | – | – | – | – | – | – | – | – | – | – | – | – | MIC (EMRSA16; Staphylococcus aureus (EMRSA16), Gram-Positive (Table 14), hydrochloride): 2 mg/L; MIC, MSSA9144 (MSSA9144; in µg/mL): 0.25; MIC (MSSA9144; Staphylococcus aureus (MSSA9144), Gram-Positive): 0.25 mg/L; MIC, M6 (M6; hydrochloride, in µg/mL): 16; MIC (KP13368; Klebsiella pneumoniae (KP13368), Gram-Negative): 64 mg/L; MIC, PA01 (PA01; hydrochloride, in µg/mL): 32; MIC, EC12923 (EC12923; hydrochloride, in µg/mL): 4; MIC, Ab17978 (Ab17978; hydrochloride, in µg/mL): 8; MIC (VSE775; Enterococcus (VRE775), Gram-Positive): 0 to 5 mg/L
10 | C[C@H]1COc2c(N3CCN(c4ccccn4)CC3)c(F)cc3c(=O)c(C(=O)O)cn1c23 [ML-83-0018, (S)-9-fluoro-3-methyl-7-oxo-w-(4-(pyridin-2-yl)piperazin-1-yl)-2,3-dihydro-7H-[1,4]oxazino[2,3,4-ij]quinoline-6-carboxylic acid] | 2 | 8 | 4 | ≤0.12 | 8 | 0.25 | 32 | 64 | – | 2-4 | 2 | 0.25-0.5 | –
11 | C[C@H]1COc2c(N3CCC(n4cccn4)CC3)c(F)cc3c(=O)c(C(=O)O)cn1c23 [ML-83-041, (S)-10-(4-(1H-pyrazol-1-yl)piperidin-1-yl)-9-fluoro-3-methyl-7-oxo-2,3-dihydro-7H-[1,4]oxazino[2,3,4-ij]quinoline-6-carboxylic acid] | 16 | – | – | 2 | 4 | 8 | 32 | 64 | – | 2 | 4-8 | 8 | –
